What was measured:
Colony formation assay = assay type: cell-based, mouse; conditions: mouse, C2C12 cells, 100 μM, read-out: C2C12 cells remaining viable
Method: (§1) Cells were cultured in a 24-well plate with 1 mL of DMEM nutrient medium for 24 h. […] The experiment was conducted in triplicate and in two or three independent repetitions. Only solvent was added to the control wells instead of the test compounds. Incubation with the drugs continued for three days, after which the grown colonies were washed with cold PBS solution and fixed in a fixing buffer (10% acetic acid, 10% methanol in distilled water) for 15 min. The colonies were stained with a 0.4% solution of crystal violet in 20% ethanol for 30 min and then washed 3 times with dH2O and analyzed under a microscope. The colonies were then dissolved in 10% acetic acid for 40 min on a shaker, and the absorbance of the lysate was read at 590 nm. Results were expressed as a percentage relative to the control, and a dose–response curve was plotted to determine the IC50 value.

C2C12 = test: Colony formation assay; assay type: cell-based, mouse; conditions: Mus musculus, C2C12, 72 h, incubation three days, read-out: Inhibitory concentration IC50, C2C12
Method: as §1

SF-539 = test: Proliferation by impedance biosensor (RTCA DP Analyzer); assay type: cell-based; conditions: Homo sapiens, SF-539, 72 h, incubation three days, read-out: IC50 inhibitory concentration, SF-539
Method: (§2) The effect of the test compounds on the proliferation of multiple cell lines was assessed in real time using the RTCA DP Analyzer (Roche, Basel, Switzerland). For this purpose, we used specialized E-plates containing wells similar in size to a standard 96-well plate, but their bottoms were covered with microelectrodes to assess impedance. When cells adhere to the microelectrodes, the impedance of the well changes, which allows us to calculate the cell index proportional to the cell number. In the experiment, cells were seeded in the E-plate at densities of 20,000 cells per milliliter (180 μL/well). At 24 h post-cell attachment, 20 μL of compounds at various test concentrations or solvent as a control were introduced, and cells were then cultured with real-time impedance registration for 5 days.

HCT-116 = test: as above; assay type: cell-based; conditions: Homo sapiens, HCT-116, 72 h, incubation three days, read-out: IC50 inhibitory concentration, HCT-116
Method: as §2

PC-3 = test: as above; assay type: cell-based; conditions: Homo sapiens, PC-3, 72 h, incubation three days, read-out: IC50 inhibitory concentration, PC-3
Method: as §2

HSF = test: as above; assay type: cell-based; conditions: Homo sapiens, 72 h, incubation three days, read-out: IC50 inhibitory concentration, HSF
Method: as §2

MDA-MB-231 = test: as above; assay type: cell-based; conditions: Homo sapiens, MDA-MB-231, 72 h, incubation three days, read-out: IC50 inhibitory concentration, MDA-MB-231
Method: as §2

MCF-7 cells = test: Apoptosis induction, Annexin V-FITC/DAPI flow cytometry; assay type: cell-based, human
Method: MCF-7 cells were seeded at a concentration of 15,000 cells/mL in a 6-well plate. Then, 24 h later the cells were treated with different concentrations of DOX-2 for 72 h. The nutrient medium over cells containing the floating cells was collected into tubes, and then the adherent cells were trypsinized and added to the fraction of floating cells. Then, cells were washed, placed in a binding buffer, stained with Annexin V-FITC/DAPI, and analyzed using the flow cytofluorimeter BD FACSCalibur™ (BD Biosciences, Franklin Lakes, NJ, USA). A total of 1% Triton X-100 was used as a control apoptosis inducer.

SMILES: COc1cccc2c1C(=O)c1c(O)c3c(c(O)c1C2=O)CC(O)(C(=O)CO)CC3OC1CC(NC(=O)/C=C/c2cnc(C)c3c2COC(C)(C)O3)C(O)C(C)O1 (stereo not drawn) [DOX-2, (E)-N-(3-hydroxy-2-methyl-6-((3,5,12-trihydroxy-3-(2-hydroxyacetyl)-10-methoxy-6,11-dioxo-1,2,3,4,6,11-hexahydrotetracen-1-yl)oxy)tetrahydro-2H-pyran-4-yl)-3-(2,2,8-trimethyl-4H-[1,3]dioxino[4,5-c]pyridin-5-yl)acrylamide]
- viability at 3 days, 100 µM (Colony formation assay): 30%
- IC50 (C2C12): 0.81 ± 0.07 µM
- IC50 (SF-539): 11.6 ± 8.55 µM
- IC50 (HCT-116): 1.67 ± 0.02 µM
- IC50 (PC-3): 40.3 ± 13.5 µM
- IC50 (HSF): ~100 µM
- IC50 (MDA-MB-231): 47.6 ± 26.1 µM
- Percentage of cells in early and late apoptosis (MCF-7 cells; MCF-7, 72 h, IC20–IC60 concentrations): up to 25%
- Accumulation of necrotic cells (in words) (MCF-7 cells; MCF-7, concentration corresponding to IC60): no accumulation of necrotic cells

Reference: paper PMC10970924 (Life, 2024)
